Source: US20120178626A1, “SYNERGISTIC HERBICIDAL COMPOSITION CONTAINING PROPYZAMIDE AND BENFLURALIN” (DOW AGROSCIENCES LLC, priority 2011, published 2012)

How the values were obtained:
Test in all cases: Field trial, percent visual weed control, soil-applied tank mixes
Type in all cases: in vivo
Settings in all cases: applied to soil
[1] = test system: Venice mallow (Hibiscus trionum, HIBTR)
Method: (§1) These trials were conducted under field conditions in USA. Trial sites were located in California. The trials were conducted using normal small plot research methodology. Trial plots were between 2 to 4.5 meters (m) wide by 5.5 to 10 m long. All treatments were applied using a randomized complete block trial design with 4 replications per treatment. The trial sites had naturally occurring populations of weeds. The weed spectrum included, but was not limited to, redroot pigweed (Amaranthus retroflexus, AMARE), Shepherds purse (Capsella bursa-pastoris, CAPBP) and Venice mallow (Hibiscus trionum, HIBTR). Treatments consisted of tank mixes of the commercial formulations of propyzamide and benfluralin applied in water directly to the soil. The application volumes were between 93.5 to 187 liters per hectare (L/ha). All application were made using precision gas backpack hand sprayers using a 2 or 3 m boom using flat fan (80° or 110°) nozzles to broadcast the treatments on the soil.
(§2) The treated plots and control plots were rated blind at various intervals after application. Ratings were based of Percent (%) Visual weed control, where 0 corresponds to no control and 100 corresponds to complete control.
(§3) Data was collected for all trials and analyzed using various statistical methods.
(§4) Colby's equation was used to determine the herbicidal effects expected from the mixtures (Colby, S. R. Calculation of the synergistic and antagonistic response of herbicide combinations. Weeds 1967 15, 20-22).
(§5) The following equation was used to calculate the expected activity of mixtures containing two active ingredients, A and B:
(§6) A=observed efficacy of active ingredient A at the same concentration as used in the mixture;
(§7) B=observed efficacy of active ingredient B at the same concentration as used in the mixture.

[2] = test system: redroot pigweed (Amaranthus retroflexus, AMARE)
Method: as §1, §2, §3, §4, §5, §6, §7

[3] = test system: Shepherds purse (Capsella bursa-pastoris, CAPBP)
Method: as §1, §2, §3, §4, §5, §6, §7

[4] = propyzamide 0, benfluralin 340 g ai/ha, 50 Days After Application
[5] = propyzamide 210 g ai/ha, benfluralin 0, 50 Days After Application

CCCCN(CC)c1c([N+](=O)[O-])cc(C(F)(F)F)cc1[N+](=O)[O-] [Benfluralin, N-butyl-N-ethyl-2,6-dinitro-4-(trifluoromethyl)-benzenamine]
% Weed Control HIBTR, Ob (percent control observed) [1, 4]: 0% | % Weed Control AMARE, Ob (percent control observed) [2, 4]: 0% | % Weed Control CAPBP, Ob (percent control observed) ([3]; propyzamide 0, benfluralin 670 g ai/ha, 50 Days After Application): 3%

C#CC(C)(C)NC(=O)c1cc(Cl)cc(Cl)c1 [Propyzamide, 3,5-dichloro-N-(1,1-dimethyl-2-propynyl)-benzamide]
% Weed Control HIBTR, Ob (percent control observed) [1, 5]: 20% | % Weed Control AMARE, Ob (percent control observed) [2, 5]: 13% | % Weed Control CAPBP, Ob (percent control observed) [3, 5]: 20%
